Results: ChEMBL document CHEMBL1201862, “PubChem BioAssay data set” (2004)
Where “and” joins values, the source holds several entries; their conditions need not be identical. Equal entries are not always repeated.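 96-well plates; 48 h exposure; 5 concentrations. Endpoints by linear interpolation between flanking doses. Not reached: highest tested concentration assigned. At the GI50, growth is halved.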 Calls of active or inactive are those of the source. Cut-off read from the data, not from the text of the source: active = GI50 up to about 1.1 µM and inactive = higher.

Tests used:
Test in all cases: NCI anticancer screen, dose series, 48 h
[1] = system: MCF7
[2] = system: HOP-62
[3] = system: DMS-273
[4] = system: HCC 2998
[5] = system: Hs-578T
[6] = system: DLD-1
[7] = system: MDA-MB-231
[8] = system: RPMI-8226
[9] = system: RXF 393
[10] = system: HT-29
[11] = system: LOX IMVI
[12] = system: HL-60
[13] = system: CCRF-CEM
[14] = system: HCT-15
[15] = system: HOP-18
[16] = system: DU-145
[17] = system: MDA-MB-435
[18] = system: SN12C
[19] = system: M14
[20] = system: SR
[21] = system: SK-MEL-2
[22] = system: NCI/ADR-RES
[23] = system: COLO 205
[24] = system: SF-268
[25] = system: MDA-N
[26] = system: SF-295
[27] = system: XF498
[28] = system: KM-20L2
[29] = system: HOP-92
[30] = system: NCI-H460
[31] = system: OVCAR-3
[32] = system: T47D
[33] = system: MOLT-4
[34] = system: KM12
[35] = system: OVCAR-5
[36] = system: K562
[37] = system: U-251
[38] = system: SW-620
[39] = system: CAKI-1
[40] = system: IGROV-1
[41] = system: UACC-62
[42] = system: HCT-116
[43] = system: TK-10
[44] = system: SF-539
[45] = system: SK-OV-3
[46] = system: OVCAR-8
[47] = system: NCI-H23
[48] = system: M19-MEL
[49] = system: LXFL 529
[50] = system: 786-0
[51] = system: UO-31
[52] = system: NCI-H522
[53] = system: EKVX
[54] = system: A549
[55] = system: SK-MEL-5

Structure (SMILES)	GI50 [2]	GI50 [3]	GI50 [6]	GI50 [8]	GI50 [9]	GI50 [10]	GI50 [11]	GI50 [12]	GI50 [13]	GI50 [14] [µM]	GI50 [15]	GI50 [18]	GI50 [19]	GI50 [23]	GI50 [26]	GI50 [27]	GI50 [28]	GI50 [29]	GI50 [30]	GI50 [33]	other results
CSc1nc(C)c(Br)c(=O)n1C1OC(COC(C)=O)C(OC(C)=O)C(OC(C)=O)C1OC(C)=O (stereo not drawn)	26.8 µM (inactive) and 22 µM (inactive)	27.7 µM (inactive)	> 100 µM (inactive)	> 100 µM (inactive)	20.5 µM (inactive) and 19.9 µM (inactive)	> 100 µM (inactive)	> 100 µM (inactive)	> 100 µM (inactive)	> 100 µM (inactive)	> 100	60.4 µM (inactive)	> 100 µM (inactive)	> 100 µM (inactive)	> 100 µM (inactive)	24.2 µM (inactive) and 26.9 µM (inactive)	21.2 µM (inactive)	> 100 µM (inactive)	20.1 µM (inactive) and 13.6 µM (inactive)	> 100 µM (inactive) and 97.1 µM (inactive)	> 100 µM (inactive)	GI50 [1]: > 100 µM (inactive); GI50 [4]: > 100 µM (inactive); GI50 [5]: 42.9 µM (inactive); GI50 [7]: 63.8 µM (inactive); GI50 [16]: > 100 µM (inactive); GI50 [17]: > 100 µM (inactive); GI50 [20]: > 100 µM (inactive); GI50 [21]: 56.5 µM (inactive); GI50 [22]: > 100 µM (inactive); GI50 [24]: 34.1 µM (inactive) and 19.6 µM (inactive); GI50 [25]: > 100 µM (inactive); GI50 [31]: > 100 µM (inactive); GI50 [32]: > 100 µM (inactive); GI50 [34]: > 100 µM (inactive); GI50 [35]: > 100 µM (inactive) and 94.2 µM (inactive); GI50 [36]: > 100 µM (inactive); GI50 [37]: 39.1 µM (inactive) and 22.4 µM (inactive); GI50 [38]: > 100 µM (inactive)
Cc1nc2ccccc2c(=O)n1/N=C(\N=N\c1cccc(Cl)c1)c1ccccc1Cl	37.8 µM (inactive)	50.2 µM (inactive)	75.5 µM (inactive)	> 100 µM (inactive)	21.7 µM (inactive)	> 100 µM (inactive)	> 100 µM (inactive)	> 10 µM (inactive)	> 10 µM (inactive)	> 100	1.48 µM (inactive)	> 100 µM (inactive)	> 100 µM (inactive)	> 10 µM (inactive)	30.4 µM (inactive)	2.29 µM (inactive)	> 100 µM (inactive)	29.9 µM (inactive)	49.9 µM (inactive)	> 10 µM (inactive)	GI50 [39]: > 100 µM (inactive); GI50 [40]: > 10 µM (inactive); GI50 [41]: > 100 µM (inactive); GI50 [42]: 36 µM (inactive); GI50 [43]: 49.4 µM (inactive); GI50 [44]: 25.3 µM (inactive); GI50 [45]: 25.8 µM (inactive); GI50 [46]: > 100 µM (inactive); GI50 [47]: 64.9 µM (inactive); GI50 [48]: > 100 µM (inactive); GI50 [49]: > 10 µM (inactive); GI50 [50]: 83 µM (inactive); GI50 [51]: 99.3 µM (inactive); GI50 [52]: 29 µM (inactive); GI50 [53]: 69.8 µM (inactive); GI50 [36]: 0.57 µM (active); GI50 [37]: 37.9 µM (inactive); GI50 [54]: > 100 µM (inactive); GI50 [55]: > 100 µM (inactive); GI50 [38]: > 100 µM (inactive)
